The nature of test [1]: Inhibition of IL4 and LPS-induced IgE production in BALB/c mouse spleen B cell after 6 days by ELISA. Conditions: 144 h. Type of test: functional, tissue-based. A general note: In an ELISA, binding on a coated surface is turned into a signal by an enzyme label.
Test [2] has as its system Lymphocyte. The test can be described thus: Immunosuppressive activity in rat lymphocytes assessed as inhibition of mixed-lymphocyte reaction. Type of test: functional, cell-based.
A short description of test [3]: Inhibition of PHA-induced BALB/c mouse T cell proliferation at 10 uM. It is filed as cell-based.
In test [4] the test system is K562. The experiment in a line: Cytotoxicity against human K562 cells. Type of test: functional, cell-based.
Test [5] can be described thus: Cytotoxicity against BALB/c mouse B cells assessed as cell viability. It is filed as cell-based.
Test [6] has as its system Lymphocyte. The experiment in a line: Immunosuppressive activity in rat lymphocytes assessed as inhibition of mixed-lymphocyte reaction at 10 uM. It is filed as functional, cell-based.
A short description of test [7]: Selectivity for IgE production in BALB/c mouse spleen B cells over IgM production in BALB/c mouse spleen B cells. It is filed as functional.
Test [8] in a line: Selectivity for IgE production in BALB/c mouse spleen B cells over IgG2a production in BALB/c mouse spleen B cells. It is filed as functional.
The nature of test [9]: Selectivity for IgE production in BALB/c mouse spleen B cells over IgG1 production in BALB/c mouse spleen B cells. It is filed as functional.
The subject of test [10] is B. The test can be described thus: Inhibition of IL4 and LPS-induced IgG production in BALB/c mouse spleen B cell after 6 days by ELISA. It is filed as functional, tissue-based.
Test [11] has as its system B. The experiment in a line: Inhibition of IL4 and LPS-induced IgM production in BALB/c mouse spleen B cell after 6 days by ELISA. Type of test: functional, tissue-based.

Active and inactive are the calls of the source. No cut-off for these calls is given here.

As usually defined, the IC50 is the midpoint of a concentration-inhibition curve. `CC/C=C\[C@H](O)[C@H](O)C1=C(C)C(=O)[C@]2(C[C@](OC)(C(=O)c3ccccc3)NC2=O)O1` [9-DEOXYPSEUROTIN A] showed a 50% inhibitory concentration (IC50) in [1] above 10 µM.

In turn, `CCC[C@H](O)[C@H](O)C1=C(C)C(=O)[C@]2(O1)C(=O)N[C@@](OC)(C(=O)c1ccccc1)[C@@H]2O` came in with an IC50 in test [1] above 10 µM.

As to `CCCCCC[C@H](O)[C@H](O)C1=C(C)C(=O)[C@]2(O1)C(=O)N[C@@](OC)(C(=O)c1ccccc1)[C@@H]2O`, in test [1], the IC50 is above 10 µM.

`CO[C@@]1(C(=O)c2ccccc2)NC(=O)[C@]2(OC(CNCc3ccccc3)=C(C)C2=O)[C@H]1O` yielded an IC50 in test [1] above 10 µM.

In test [1], `CO[C@@]1(C(=O)c2ccccc2)NC(=O)[C@]2(OC(/C=C/C#N)=C(C)C2=O)[C@H]1O` returned an IC50 above 10 µM.

On to `CCCC[C@H](O)[C@H](O)C1=C(C)C(=O)[C@]2(O1)C(=O)N[C@@](OC)(C(=O)c1ccccc1)[C@@H]2O` [12,13-DIHYDROXYPSEUROTIN A], for which the IC50 in test [1] was above 10 µM.

For `CC/C=C\[C@H](O)[C@H](O)C1=C(C)C(=O)[C@]2(O1)C(=O)N[C@@](OCC)(C(=O)c1ccccc1)[C@@H]2O` [8-ETHOXYPSEUROTIN A], the IC50 in [1] was above 10 µM.

For `CC[C@H](Br)[C@@H](Br)[C@H](O)[C@H](O)C1=C(C)C(=O)[C@]2(O1)C(=O)N[C@@](OC)(C(=O)c1ccccc1)[C@@H]2O` [12,13-DIBROMOPSEUROTIN A], the IC50 in [1] is above 10 µM.

`CO[C@@]1(C(=O)c2ccccc2)NC(=O)[C@]2(OC([C@@H](O)[C@@H](O)/C=C/CCc3ccccc3)=C(C)C2=O)[C@H]1O`: the IC50 in [1] was above 10 µM.

For `CC/C=C\[C@H](O)[C@H](O)C1=C(C)C(=O)[C@]2(O1)C(=O)N[C@@](OC)(C(=O)c1cccc(F)c1)[C@@H]2O`, the half-maximal inhibitory concentration (IC50) in test [1] is above 10 µM.

The molecule `CC/C=C\[C@H](O)[C@H](O)C1=C(C)C(=O)[C@]2(O1)C(=O)N[C@@](O)(C(=O)c1ccccc1)[C@@H]2O` [PSEUROTIN F2] gave an IC50 in test [1] above 10 µM.

Consider `CC/C=C\[C@H](OC(C)=O)[C@H](OC(C)=O)C1=C(C)C(=O)[C@]2(O1)C(=O)N[C@@](OC)(C(=O)c1ccccc1)[C@@H]2OC(C)=O` [TRIACETYLPSEUROTIN A], for which the IC50 in test [1] was above 10 µM.

With `CC/C=C\[C@H](O)[C@H](O)C1=C(C)C(=O)[C@]2(O1)C(=O)N(C)[C@@](OC)(C(=O)c1ccccc1)[C@@H]2O` [7-N-METHYLPSEUROTIN A], the 50% inhibitory concentration (IC50) in [1] is above 10 µM.

As for `CCC1CC1[C@H](O)[C@H](O)C1=C(C)C(=O)[C@]2(O1)C(=O)N[C@@](OC)(C(=O)c1ccccc1)[C@@H]2O` (stereo partly specified) [12,13-CYCLOPROPYLPSEUROTIN A], in test [1], the IC50 is above 10 µM.

`CC/C=C\[C@H](OC)[C@H](O)C1=C(C)C(=O)[C@]2(O1)C(=O)N[C@@](OC)(C(=O)c1ccccc1)[C@@H]2O` [11-O-METHYLPSEUROTIN A] showed an IC50 in test [1] above 10 µM.

`CO[C@@]1(C(=O)c2ccccc2)NC(=O)[C@]2(OC(/C=C/C=O)=C(C)C2=O)[C@H]1O`: in test [1], the IC50 was above 10 µM.

For orientation: inhibition means the share of the control response that was lost under treatment. A low value points to little suppression. `CC/C=C\[C@H](O)[C@H](O)C1=C(C)C(=O)[C@]2(O1)C(=O)N[C@@](OC)(C(=O)c1ccccc1)[C@@H]2O` [PSEUROTIN A]: the IC50 was 3.6 µM in test [1], above 10 µM in test [2], above 10 µM in test [4] and above 10 µM in test [5]. In test [3], this molecule yielded an inhibition at 10 µM of 0%. Moreover, in [6], the outcome was inactive.

On to `CO[C@@]1(C(=O)c2ccccc2)NC(=O)[C@]2(OC(C=O)=C(C)C2=O)[C@H]1O`, for which the IC50 in test [1] was above 10 µM.

Molecule `CCOC(=O)/C=C/C1=C(C)C(=O)[C@]2(O1)C(=O)N[C@@](OC)(C(=O)c1ccccc1)[C@@H]2O` returned an IC50 in test [1] above 10 µM.

Turning to `C=CCNCC1=C(C)C(=O)[C@]2(O1)C(=O)N[C@@](OC)(C(=O)c1ccccc1)[C@@H]2O`, the IC50 in test [1] was above 10 µM.

Turning to `CO[C@@]1(C(=O)c2ccccc2)NC(=O)[C@]2(OC([C@@H](O)[C@@H](O)C=C3CCCCC3)=C(C)C2=O)[C@H]1O`, the IC50 in test [1] is above 10 µM.

Take `CC/C=C\[C@H]1O[C@@H]1C1=C(C)C(=O)[C@]2(O1)C(=O)N[C@@](OC)(C(=O)c1ccccc1)[C@@H]2O` [SYNERAZOL]: the IC50 was 0.26 µM in [1], 3.1 µM in test [2], above 10 µM in [4] and above 10 µM in test [5]. This molecule also gave an inhibition at 10 µM in test [3] of 54%.

For the molecule `COC(=O)/C=C/[C@H](O)[C@H](O)C1=C(C)C(=O)[C@]2(O1)C(=O)N[C@@](OC)(C(=O)c1ccccc1)[C@@H]2O`, in test [1], the half-inhibitory concentration (IC50) was above 10 µM.

With `CO[C@@]1(C(=O)c2ccccc2)NC(=O)[C@]2(OC([C@@H](O)[C@@H](O)CCCCc3ccccc3)=C(C)C2=O)[C@H]1O`, the IC50 in test [1] was above 10 µM.

In turn, `CC/C=C\[C@H](OC(C)=O)[C@H](OC(C)=O)C1=C(C)C(=O)[C@]2(O1)C(=O)N(C(C)=O)[C@@](OC)(C(=O)c1ccccc1)[C@@H]2OC(C)=O` [TETRAACETYLPSEUROTIN A] gave an IC50 in test [1] above 10 µM.

Consider `C/C=C/[C@H](O)[C@H](O)C1=C(C)C(=O)[C@]2(O1)C(=O)N[C@@](OC)(C(=O)c1ccccc1)[C@@H]2O`, for which the IC50 in [1] is above 10 µM.

`CC/C=C\[C@H](O)[C@H](O)C1=C(C)C(=O)[C@]2(O1)C(=O)N[C@@](OC)(C(O)c1ccccc1)[C@@H]2O` (stereo partly specified) [17-DIHYDROPSEUROTIN A]: the IC50 in test [1] was above 10 µM.

In test [1], `CNCC1=C(C)C(=O)[C@]2(O1)C(=O)N[C@@](OC)(C(=O)c1ccccc1)[C@@H]2O` showed an IC50 above 10 µM.

`CO[C@@]1(C(=O)c2ccccc2)NC(=O)[C@]2(OC(/C=C/C=C/C(C)=O)=C(C)C2=O)[C@H]1O` displayed an IC50 in [1] above 10 µM.

On to `C[C@]12C=CC(=O)C=C1CC[C@@H]1[C@@H]2[C@@H](O)C[C@@]2(C)[C@H]1CC[C@]2(O)C(=O)CO` [PREDNISOLONE], for which the IC50 is 0.0059 µM in [1], 0.078 µM in test [2] and above 10 µM in test [5]. This molecule came in with an inhibition at 10 µM in test [3] of 84%. Also, the Ratio in [7] amounted to 0.4; in [8], 0.8; in test [9], 1.

In the case of `CC/C=C/[C@H](O)[C@H](O)C1=C(C)C(=O)[C@]2(O1)C(=O)N[C@@](OC)(C(=O)c1ccccc1)[C@@H]2O`, in test [1], the IC50 is above 10 µM.

In test [1], `CC/C=C\[C@H](O)[C@H](O)C1=C(C)C(=O)[C@]2(O1)[C@@H](OC)N[C@@](OC)(C(=O)c1ccccc1)[C@@H]2O` [6-O-METHOXYPSEUROTIN A] came in with an IC50 above 10 µM.

Turning to `CC/C=C\[C@H](O)CC1=C(C)C(=O)[C@]2(O1)C(=O)N[C@@](OC)(C(=O)c1ccccc1)[C@@H]2O` [10-DEOXYPSEUROTIN A], the IC50 is 0.066 µM in [1], above 10 µM in test [4] and 4.4 µM in test [5]. Besides, the inhibition at 10 µM in [3] is 0%. Moreover, the outcome in test [10] and in test [11] was Active. The Ratio stood at 44 in [7], 23 in test [8] and 3.5 in test [9].

As to `CCCCNCC1=C(C)C(=O)[C@]2(O1)C(=O)N[C@@](OC)(C(=O)c1ccccc1)[C@@H]2O`, the IC50 in [1] was 3.1 µM; in test [4], above 10 µM; in test [5] it was above 10 µM. In test [3], this molecule had an inhibition at 10 µM of 2%.

Regarding `CCC1OC1[C@H](O)[C@H](O)C1=C(C)C(=O)[C@]2(O1)C(=O)N[C@@](OC)(C(=O)c1ccccc1)[C@@H]2O` (stereo partly specified) [13-EPOXYPSEUROTIN A], in test [1], the IC50 is above 10 µM.

In test [1], `CC/C=C\[C@@H]1O[C@H]1C1=C(C)C(=O)[C@]2(O1)C(=O)N[C@@](OC)(C(=O)c1ccccc1)[C@@H]2O` displayed an IC50 above 10 µM.

In [1], `CCOC(=O)/C=C\C1=C(C)C(=O)[C@]2(O1)C(=O)N[C@@](OC)(C(=O)c1ccccc1)[C@@H]2O` showed an IC50 above 10 µM.

`CO[C@@]1(C(=O)c2ccccc2)NC(=O)[C@]2(OC([C@@H](O)[C@@H](O)/C=C/C(C)=O)=C(C)C2=O)[C@H]1O` [PSEUROTIN E]: the IC50 in test [1] is above 10 µM.

In the case of `CO[C@@]1(C(=O)c2ccccc2)NC(=O)[C@]2(OC(CO)=C(C)C2=O)[C@H]1O`, the IC50 in [1] is above 10 µM.

For `CCOC(=O)/C(C)=C/C1=C(C)C(=O)[C@]2(O1)C(=O)N[C@@](OC)(C(=O)c1ccccc1)[C@@H]2O`, the IC50 in test [1] was above 10 µM.

In test [1], `COC(=O)CC[C@H](O)[C@H](O)C1=C(C)C(=O)[C@]2(O1)C(=O)N[C@@](OC)(C(=O)c1ccccc1)[C@@H]2O` returned an IC50 above 10 µM.

The molecule `CO[C@@]1(C(=O)c2ccccc2)NC(=O)[C@]2(OC(CN3CCCCC3)=C(C)C2=O)[C@H]1O` returned an IC50 in test [1] above 10 µM.

In test [1], `CC/C=C\[C@H](O)[C@H](O)C1=C(C)C(=O)[C@]2(O1)C(=O)N[C@@](OC)(C(=O)c1ccccc1F)[C@@H]2O` returned a 50% inhibitory concentration (IC50) above 10 µM.

Take `CC/C=C\[C@H]1OC(C)(C)O[C@@H]1C1=C(C)C(=O)[C@]2(O1)C(=O)N[C@@](OC)(C(=O)c1ccccc1)[C@@H]2O`: the IC50 in [1] is above 10 µM.

As to `CO[C@@]1(C(=O)c2ccccc2)NC(=O)[C@]2(OC(CN(C)Cc3ccccc3)=C(C)C2=O)[C@H]1O`, the IC50 in test [1] was above 10 µM.

Values taken from ChEMBL document CHEMBL1152873, “Pseurotin A and its analogues as inhibitors of immunoglobulin E [correction of immunoglobuline E] production” (Bioorg Med Chem Lett, 2009).
